Source: patent US20250206727A1, “HETEROCYCLIC SUBSTITUTED AROMATIC COMPOUND, PREPARATION METHOD THEREFOR, HERBICIDAL COMPOSITION AND APPLICATION” (QINGDAO KINGAGROOT CHEMICAL COMPOUND CO., LTD., priority 2022, published 2025)

Assays:
Assay in all cases: Post-emergence test on weeds (greenhouse, spray at 2-3 leaf stage)
Format in all cases: in vivo
Design in all cases: key: Level 10: completely dead; Level 9: growth control rate greater than or equal to 90% and less than 100%; Level 8: growth control rate greater than or equal to 80% and less than 90%; Level 7: growth control rate greater than or equal to 70% and less than 80%; Level 6: growth control rate greater than or equal to 60% and less than 70%; Level 5: growth control rate greater than or equal to 50% and less than 60%; Level 4: growth control rate greater than or equal to 40% and less than 50%; Level 3: growth control rate greater than or equal to 30% and less than 40%; Level 2: growth control rate greater than or equal to 20% and less than 30%; Level 1: growth control rate less than 20%; Level 0: no effect
Conditions in all cases: 60 g a.i./ha, 3 weeks after application
Setaria viridis = test system: Setaria viridis
Summary of the method: (§1)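 Pot-grown plants were spray-tower treated two weeks after sowing with compound in acetone/Tween 80 plus 1.5 L/ha methyl oleate EC, at rates from 500 to 7.5 g a.i./ha. Fresh-weight growth control was scored 0–10 after 3 weeks in the greenhouse, averaged over triplicates.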

Amaranthus retroflexus = test system: Amaranthus retroflexus
Summary of the method: as §1

Veronica polita = test system: Veronica polita
Summary of the method: as §1

Digitaria sanguinalis = test system: Digitaria sanguinalis
Summary of the method: as §1

Abutilon theophrasti = test system: Abutilon theophrasti
Summary of the method: as §1

Echinochloa crus-galli = test system: Echinochloa crus-galli
Summary of the method: as §1

CCOC(=O)C1(C(F)(F)F)ON=C(c2cc(-c3ncc(C(F)(F)F)cc3Cl)c(F)cc2Cl)O1 (stereo not drawn) [Compound 62]
10: activity level (fresh weight growth control rate), Setaria viridis (Setaria viridis) | activity level (fresh weight growth control rate), Amaranthus retroflexus (Amaranthus retroflexus) | activity level (fresh weight growth control rate), Veronica polita (Veronica polita) | activity level (fresh weight growth control rate), Digitaria sanguinalis (Digitaria sanguinalis) | activity level (fresh weight growth control rate), Abutilon theophrasti (Abutilon theophrasti) | activity level (fresh weight growth control rate), Echinochloa crus-galli (Echinochloa crus-galli)

CCOC(=O)C1(C)ON=C(c2cc(-c3ncc(C)cc3F)c(F)cc2Cl)O1 (stereo not drawn) [Compound 32]
10: activity level (fresh weight growth control rate), Setaria viridis (Setaria viridis) | activity level (fresh weight growth control rate), Amaranthus retroflexus (Amaranthus retroflexus) | activity level (fresh weight growth control rate), Veronica polita (Veronica polita) | activity level (fresh weight growth control rate), Digitaria sanguinalis (Digitaria sanguinalis) | activity level (fresh weight growth control rate), Abutilon theophrasti (Abutilon theophrasti) | activity level (fresh weight growth control rate), Echinochloa crus-galli (Echinochloa crus-galli)

COCCOC(=O)C1(C)ON=C(c2cc(-c3ncc(Cl)cc3Cl)c(F)cc2Cl)O1 (stereo not drawn) [Compound 111]
10: activity level (fresh weight growth control rate), Setaria viridis (Setaria viridis) | activity level (fresh weight growth control rate), Amaranthus retroflexus (Amaranthus retroflexus) | activity level (fresh weight growth control rate), Veronica polita (Veronica polita) | activity level (fresh weight growth control rate), Digitaria sanguinalis (Digitaria sanguinalis) | activity level (fresh weight growth control rate), Abutilon theophrasti (Abutilon theophrasti) | activity level (fresh weight growth control rate), Echinochloa crus-galli (Echinochloa crus-galli)

CC1(C(=O)OCc2ccccc2F)ON=C(c2cc(-c3ncc(C(F)(F)F)cc3Cl)c(F)cc2Cl)O1 (racemic) [Compound 133]
10: activity level (fresh weight growth control rate), Setaria viridis (Setaria viridis) | activity level (fresh weight growth control rate), Amaranthus retroflexus (Amaranthus retroflexus) | activity level (fresh weight growth control rate), Veronica polita (Veronica polita) | activity level (fresh weight growth control rate), Digitaria sanguinalis (Digitaria sanguinalis) | activity level (fresh weight growth control rate), Abutilon theophrasti (Abutilon theophrasti) | activity level (fresh weight growth control rate), Echinochloa crus-galli (Echinochloa crus-galli)

COC(=O)C1(C)ON=C(c2cc(-c3ncc(F)cc3Cl)c(F)cc2Cl)O1 (stereo not drawn) [Compound 14]
10: activity level (fresh weight growth control rate), Setaria viridis (Setaria viridis) | activity level (fresh weight growth control rate), Amaranthus retroflexus (Amaranthus retroflexus) | activity level (fresh weight growth control rate), Veronica polita (Veronica polita) | activity level (fresh weight growth control rate), Digitaria sanguinalis (Digitaria sanguinalis) | activity level (fresh weight growth control rate), Abutilon theophrasti (Abutilon theophrasti) | activity level (fresh weight growth control rate), Echinochloa crus-galli (Echinochloa crus-galli)

CCOC(=O)C1(C)ON=C(c2cc(-c3ncc(C(F)(F)F)cc3C)c(F)cc2Cl)O1 (stereo not drawn) [Compound 30]
10: activity level (fresh weight growth control rate), Setaria viridis (Setaria viridis) | activity level (fresh weight growth control rate), Amaranthus retroflexus (Amaranthus retroflexus) | activity level (fresh weight growth control rate), Veronica polita (Veronica polita) | activity level (fresh weight growth control rate), Digitaria sanguinalis (Digitaria sanguinalis) | activity level (fresh weight growth control rate), Abutilon theophrasti (Abutilon theophrasti) | activity level (fresh weight growth control rate), Echinochloa crus-galli (Echinochloa crus-galli)

CCOC(=O)C1(C)ON=C(c2cc(-c3ncc(Cl)cc3F)c(F)cc2Cl)O1 (stereo not drawn) [Compound 31]
10: activity level (fresh weight growth control rate), Setaria viridis (Setaria viridis) | activity level (fresh weight growth control rate), Amaranthus retroflexus (Amaranthus retroflexus) | activity level (fresh weight growth control rate), Veronica polita (Veronica polita) | activity level (fresh weight growth control rate), Digitaria sanguinalis (Digitaria sanguinalis) | activity level (fresh weight growth control rate), Abutilon theophrasti (Abutilon theophrasti) | activity level (fresh weight growth control rate), Echinochloa crus-galli (Echinochloa crus-galli)

COC(=O)C1(C)ON=C(c2cc(-c3ncc(Cl)cc3F)c(F)cc2Cl)O1 (stereo not drawn) [Compound 13]
10: activity level (fresh weight growth control rate), Setaria viridis (Setaria viridis) | activity level (fresh weight growth control rate), Amaranthus retroflexus (Amaranthus retroflexus) | activity level (fresh weight growth control rate), Veronica polita (Veronica polita) | activity level (fresh weight growth control rate), Digitaria sanguinalis (Digitaria sanguinalis) | activity level (fresh weight growth control rate), Abutilon theophrasti (Abutilon theophrasti) | activity level (fresh weight growth control rate), Echinochloa crus-galli (Echinochloa crus-galli)

CCOC(=O)C1ON=C(c2cc(-c3ncc(C(F)(F)F)cc3Cl)c(F)cc2Cl)O1 (stereo not drawn) [Compound 26]
10: activity level (fresh weight growth control rate), Setaria viridis (Setaria viridis) | activity level (fresh weight growth control rate), Amaranthus retroflexus (Amaranthus retroflexus) | activity level (fresh weight growth control rate), Veronica polita (Veronica polita) | activity level (fresh weight growth control rate), Digitaria sanguinalis (Digitaria sanguinalis) | activity level (fresh weight growth control rate), Abutilon theophrasti (Abutilon theophrasti) | activity level (fresh weight growth control rate), Echinochloa crus-galli (Echinochloa crus-galli)

COCCCOC(=O)C1(C)ON=C(c2cc(-c3ncc(C(F)(F)F)cc3Cl)c(F)cc2Cl)O1 (stereo not drawn) [Compound 114]
10: activity level (fresh weight growth control rate), Setaria viridis (Setaria viridis) | activity level (fresh weight growth control rate), Amaranthus retroflexus (Amaranthus retroflexus) | activity level (fresh weight growth control rate), Veronica polita (Veronica polita) | activity level (fresh weight growth control rate), Digitaria sanguinalis (Digitaria sanguinalis) | activity level (fresh weight growth control rate), Abutilon theophrasti (Abutilon theophrasti) | activity level (fresh weight growth control rate), Echinochloa crus-galli (Echinochloa crus-galli)

CC(=NOC(=O)C1(C)ON=C(c2cc(-c3ncc(C(F)(F)F)cc3Cl)c(F)cc2Cl)O1)C1CC1 (racemic) [Compound 172]
10: activity level (fresh weight growth control rate), Setaria viridis (Setaria viridis) | activity level (fresh weight growth control rate), Amaranthus retroflexus (Amaranthus retroflexus) | activity level (fresh weight growth control rate), Veronica polita (Veronica polita) | activity level (fresh weight growth control rate), Digitaria sanguinalis (Digitaria sanguinalis) | activity level (fresh weight growth control rate), Abutilon theophrasti (Abutilon theophrasti) | activity level (fresh weight growth control rate), Echinochloa crus-galli (Echinochloa crus-galli)

CC1(C(=O)ON=C(c2ccccc2)c2ccccc2)ON=C(c2cc(-c3ncc(C(F)(F)F)cc3Cl)c(F)cc2Cl)O1 (racemic) [Compound 146]
10: activity level (fresh weight growth control rate), Setaria viridis (Setaria viridis) | activity level (fresh weight growth control rate), Amaranthus retroflexus (Amaranthus retroflexus) | activity level (fresh weight growth control rate), Veronica polita (Veronica polita) | activity level (fresh weight growth control rate), Digitaria sanguinalis (Digitaria sanguinalis) | activity level (fresh weight growth control rate), Abutilon theophrasti (Abutilon theophrasti) | activity level (fresh weight growth control rate), Echinochloa crus-galli (Echinochloa crus-galli)

COC(=O)C1(C)ON=C(c2cc(-c3ncc(C(F)(F)F)cc3Cl)c(F)cc2Br)O1 (stereo not drawn) [Compound 9]
10: activity level (fresh weight growth control rate), Setaria viridis (Setaria viridis) | activity level (fresh weight growth control rate), Amaranthus retroflexus (Amaranthus retroflexus) | activity level (fresh weight growth control rate), Veronica polita (Veronica polita) | activity level (fresh weight growth control rate), Digitaria sanguinalis (Digitaria sanguinalis) | activity level (fresh weight growth control rate), Abutilon theophrasti (Abutilon theophrasti) | activity level (fresh weight growth control rate), Echinochloa crus-galli (Echinochloa crus-galli)
